Patent US20110082543A1, “Methods and Devices for Preventing or Delaying Posterior Capsule Opacification” (CLEO COSMETIC AND PHARMACEUTICAL COMPANY, LLC, priority 2009, published 2011)

Legend:
rabbit LECs = details: mechanism unknown; cited from earlier work
[1] = test system: lens epithelial cells from bovine anterior capsules; assay: Outgrowth of lens epithelial cells from bovine anterior capsules on treated slides; type: cell-based
Method: The tension ring is then further treated with glutaraldehyde (GA), rinsed of excess GA, and then treated with an MTX-protein conjugate. […] Control tension rings are treated with unconjugated protein (no MTX).
Outgrowth was followed for six days.

[2] = test system: epithelial cells of the lens capsule; details: solution instilled into the anterior chamber after lens removal; cited from earlier work
[3] = treated slides, outgrowth followed for six days, first evaluation

O=C(O[C@@H]1Cc2c(O)cc(O)cc2O[C@@H]1c1cc(O)c(O)c(O)c1)c1cc(O)c(O)c(O)c1 [(−)-epigallocatechin-3-gallate (EGCG), (−)-epigallocatechin-3-gallate]
inhibition of proliferation of rabbit LECs (rabbit LECs): inhibit the proliferation

CN(Cc1cnc2nc(N)nc(N)c2n1)c1ccc(C(=O)N[C@@H](CCC(=O)O)C(=O)O)cc1 [MTX (alone), methotrexate]
outgrowth of lens epithelial cells ([1]; subsequent evaluations after the first evaluation period): not during subsequent evaluations
outgrowth of lens epithelial cells [1, 3]: inhibited outgrowth
destroying epithelial cells of the lens capsule which remain after cataract surgery [2]: effective

bovine serum albumin [protein (alone)]
outgrowth of lens epithelial cells [1, 3]: allowed good outgrowth

covalent conjugate of MTX: covalent conjugate of MTX with bovine serum albumin prepared using ECDI, attached via glutaraldehyde to the ethylenediamine plasma-treated surface
outgrowth of lens epithelial cells ([1]; slides rinsed and evaluated again, second set of lens capsules): inhibited outgrowth
outgrowth of lens epithelial cells ([1]; third set of cells on re-used slides): somewhat inhibited, but not completely
outgrowth of lens epithelial cells [1, 3]: inhibited cell outgrowth
